{"source": "PubChem BioAssay (NCI)", "assay_in_all_cases": "inhibition of tumour cell growth, NCI panel, 48 h", "key": {"HOP-92 NSCLC": {"test_system": "HOP-92 NSCLC"}, "NCI-H23 lung": {"test_system": "NCI-H23 lung"}, "KM12 colon": {"test_system": "KM12 colon"}, "EKVX NSCLC": {"test_system": "EKVX NSCLC"}, "RPMI-8226 leukemia": {"test_system": "RPMI-8226 leukemia"}, "CCRF-CEM leukemia": {"test_system": "CCRF-CEM leukemia"}, "HT29 colon": {"test_system": "HT29 colon"}, "SN12C renal": {"test_system": "SN12C renal"}, "MCF7 breast": {"test_system": "MCF7 breast"}, "SW-620 colon": {"test_system": "SW-620 colon"}, "SK-MEL-5 melanoma": {"test_system": "SK-MEL-5 melanoma"}, "NCI/ADR-RES ovarian": {"test_system": "NCI/ADR-RES ovarian"}, "MOLT-4 leukemia": {"test_system": "MOLT-4 leukemia"}, "UACC-257 melanoma": {"test_system": "UACC-257 melanoma"}, "DU-145 prostate": {"test_system": "DU-145 prostate"}, "NCI-H226 lung": {"test_system": "NCI-H226 lung"}, "OVCAR-3 ovarian": {"test_system": "OVCAR-3 ovarian"}, "SNB-19 CNS": {"test_system": "SNB-19 CNS"}, "HOP-62 NSCLC": {"test_system": "HOP-62 NSCLC"}, "SK-MEL-2 melanoma": {"test_system": "SK-MEL-2 melanoma"}, "HS 578T breast": {"test_system": "HS 578T breast"}, "HCT-15 colon": {"test_system": "HCT-15 colon"}, "HCC-2998 colon": {"test_system": "HCC-2998 colon"}, "RXF 393 renal": {"test_system": "RXF 393 renal"}, "MALME-3M melanoma": {"test_system": "MALME-3M melanoma"}, "A498 renal": {"test_system": "A498 renal"}, "IGROV1 ovarian": {"test_system": "IGROV1 ovarian"}, "BT-549 breast": {"test_system": "BT-549 breast"}, "K-562 leukemia": {"test_system": "K-562 leukemia"}, "OVCAR-4 ovarian": {"test_system": "OVCAR-4 ovarian"}, "A549 NSCLC": {"test_system": "A549 NSCLC"}, "UACC-62 melanoma": {"test_system": "UACC-62 melanoma"}, "OVCAR-5 ovarian": {"test_system": "OVCAR-5 ovarian"}, "M14 melanoma": {"test_system": "M14 melanoma"}, "MDA-MB-468 breast": {"test_system": "MDA-MB-468 breast"}, "MDA-MB-231 breast": {"test_system": "MDA-MB-231 breast"}, "CAKI-1 renal": {"test_system": "CAKI-1 renal"}, "TK-10 renal": {"test_system": "TK-10 renal"}, "MDA-MB-435": {"test_system": "MDA-MB-435"}, "UO-31 renal": {"test_system": "UO-31 renal"}, "SR leukemia": {"test_system": "SR leukemia"}, "NCI-H522 lung": {"test_system": "NCI-H522 lung"}, "SNB-75 CNS": {"test_system": "SNB-75 CNS"}, "PC-3 prostate": {"test_system": "PC-3 prostate"}, "NCI-H460 lung": {"test_system": "NCI-H460 lung"}, "HL-60(TB) leukemia": {"test_system": "HL-60(TB) leukemia"}, "SK-MEL-28 melanoma": {"test_system": "SK-MEL-28 melanoma"}, "SF-539 CNS": {"test_system": "SF-539 CNS"}}, "note": "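48-hour exposure; five concentrations; linearly interpolated endpoints. Here, GI50 denotes the concentration required for 50% inhibition of growth. TGI marks complete inhibition of growth.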", "data": [{"smiles": "CN1CCN(c2ccc(Nc3nc(N4CCN(S(=O)(=O)c5ccc(F)cc5)CC4)c4sccc4n3)cc2)CC1", "values": [{"measurement": "GI50", "setting": "HOP-92 NSCLC", "result": 7.3, "unit": "µM"}, {"measurement": "TGI", "setting": "HOP-92 NSCLC", "result": 24.1, "unit": "µM"}, {"measurement": "GI50", "setting": "NCI-H23 lung", "result": 4.35, "unit": "µM"}, {"measurement": "TGI", "setting": "NCI-H23 lung", "result": 18.1, "unit": "µM"}, {"measurement": "GI50", "setting": "KM12 colon", "result": 2020, "unit": "nM"}, {"measurement": "TGI", "setting": "KM12 colon", "result": 3.97, "unit": "µM"}, {"measurement": "GI50", "setting": "EKVX NSCLC", "result": 3.95, "unit": "µM"}, {"measurement": "TGI", "setting": "EKVX NSCLC", "result": 22.9, "unit": "µM"}, {"measurement": "GI50", "setting": "RPMI-8226 leukemia", "result": 2280, "unit": "nM"}, {"measurement": "TGI", "setting": "RPMI-8226 leukemia", "result": 4.98, "unit": "µM"}, {"measurement": "GI50", "setting": "CCRF-CEM leukemia", "result": 2390, "unit": "nM"}, {"measurement": "TGI", "setting": "CCRF-CEM leukemia", "result": 6.78, "unit": "µM"}, {"measurement": "GI50", "setting": "HT29 colon", "result": 1830, "unit": "nM"}, {"measurement": "TGI", "setting": "HT29 colon", "result": 3.6, "unit": "µM"}, {"measurement": "GI50", "setting": "SN12C renal", "result": 1730, "unit": "nM"}, {"measurement": "TGI", "setting": "SN12C renal", "result": 3.25, "unit": "µM"}, {"measurement": "GI50", "setting": "MCF7 breast", "result": 1660, "unit": "nM"}, {"measurement": "TGI", "setting": "MCF7 breast", "result": 3.18, "unit": "µM"}, {"measurement": "GI50", "setting": "SW-620 colon", "result": 1800, "unit": "nM"}, {"measurement": "TGI", "setting": "SW-620 colon", "result": 3.33, "unit": "µM"}, {"measurement": "GI50", "setting": "SK-MEL-5 melanoma", "result": 1680, "unit": "nM"}, {"measurement": "TGI", "setting": "SK-MEL-5 melanoma", "result": 3.05, "unit": "µM"}, {"measurement": "GI50", "setting": "NCI/ADR-RES ovarian", "result": 2000, "unit": "nM"}, {"measurement": "TGI", "setting": "NCI/ADR-RES ovarian", "result": 4.42, "unit": "µM"}, {"measurement": "GI50", "setting": "MOLT-4 leukemia", "result": 2450, "unit": "nM"}, {"measurement": "TGI", "setting": "MOLT-4 leukemia", "result": 6.05, "unit": "µM"}, {"measurement": "GI50", "setting": "UACC-257 melanoma", "result": 1580, "unit": "nM"}, {"measurement": "TGI", "setting": "UACC-257 melanoma", "result": 3.19, "unit": "µM"}, {"measurement": "GI50", "setting": "DU-145 prostate", "result": 1970, "unit": "nM"}, {"measurement": "TGI", "setting": "DU-145 prostate", "result": 3.76, "unit": "µM"}, {"measurement": "GI50", "setting": "NCI-H226 lung", "result": 18.7, "unit": "µM"}, {"measurement": "TGI", "setting": "NCI-H226 lung", "result": 48.2, "unit": "µM"}, {"measurement": "GI50", "setting": "OVCAR-3 ovarian", "result": 1910, "unit": "nM"}, {"measurement": "TGI", "setting": "OVCAR-3 ovarian", "result": 3.51, "unit": "µM"}, {"measurement": "GI50", "setting": "SNB-19 CNS", "result": 2640, "unit": "nM"}, {"measurement": "TGI", "setting": "SNB-19 CNS", "result": 8.71, "unit": "µM"}, {"measurement": "GI50", "setting": "HOP-62 NSCLC", "result": 11.5, "unit": "µM"}, {"measurement": "TGI", "setting": "HOP-62 NSCLC", "result": "> 100", "unit": "µM"}, {"measurement": "GI50", "setting": "SK-MEL-2 melanoma", "result": 19.7, "unit": "µM"}, {"measurement": "TGI", "setting": "SK-MEL-2 melanoma", "result": 39.2, "unit": "µM"}, {"measurement": "GI50", "setting": "HS 578T breast", "result": 17.8, "unit": "µM"}, {"measurement": "TGI", "setting": "HS 578T breast", "result": 55.4, "unit": "µM"}, {"measurement": "GI50", "setting": "HCT-15 colon", "result": 1670, "unit": "nM"}, {"measurement": "TGI", "setting": "HCT-15 colon", "result": 3.15, "unit": "µM"}, {"measurement": "GI50", "setting": "HCC-2998 colon", "result": 1690, "unit": "nM"}, {"measurement": "TGI", "setting": "HCC-2998 colon", "result": 3.23, "unit": "µM"}, {"measurement": "GI50", "setting": "RXF 393 renal", "result": 1610, "unit": "nM"}, {"measurement": "TGI", "setting": "RXF 393 renal", "result": 3.14, "unit": "µM"}, {"measurement": "GI50", "setting": "MALME-3M melanoma", "result": 1720, "unit": "nM"}, {"measurement": "TGI", "setting": "MALME-3M melanoma", "result": 3.15, "unit": "µM"}, {"measurement": "GI50", "setting": "A498 renal", "result": 19.2, "unit": "µM"}, {"measurement": "TGI", "setting": "A498 renal", "result": 34.5, "unit": "µM"}, {"measurement": "GI50", "setting": "IGROV1 ovarian", "result": 2190, "unit": "nM"}, {"measurement": "TGI", "setting": "IGROV1 ovarian", "result": 4.74, "unit": "µM"}, {"measurement": "GI50", "setting": "BT-549 breast", "result": 17.8, "unit": "µM"}, {"measurement": "TGI", "setting": "BT-549 breast", "result": 53.1, "unit": "µM"}, {"measurement": "GI50", "setting": "K-562 leukemia", "result": 2130, "unit": "nM"}, {"measurement": "TGI", "setting": "K-562 leukemia", "result": 5.73, "unit": "µM"}, {"measurement": "GI50", "setting": "OVCAR-4 ovarian", "result": 2000, "unit": "nM"}, {"measurement": "TGI", "setting": "OVCAR-4 ovarian", "result": 4.2, "unit": "µM"}, {"measurement": "GI50", "setting": "A549 NSCLC", "result": 1870, "unit": "nM"}, {"measurement": "TGI", "setting": "A549 NSCLC", "result": 4.44, "unit": "µM"}, {"measurement": "GI50", "setting": "UACC-62 melanoma", "result": 1710, "unit": "nM"}, {"measurement": "TGI", "setting": "UACC-62 melanoma", "result": 3.15, "unit": "µM"}, {"measurement": "GI50", "setting": "OVCAR-5 ovarian", "result": 2360, "unit": "nM"}, {"measurement": "TGI", "setting": "OVCAR-5 ovarian", "result": 5.94, "unit": "µM"}, {"measurement": "GI50", "setting": "M14 melanoma", "result": 1840, "unit": "nM"}, {"measurement": "TGI", "setting": "M14 melanoma", "result": 3.56, "unit": "µM"}, {"measurement": "GI50", "setting": "MDA-MB-468 breast", "result": 1500, "unit": "nM"}, {"measurement": "TGI", "setting": "MDA-MB-468 breast", "result": 2890, "unit": "nM"}, {"measurement": "GI50", "setting": "MDA-MB-231 breast", "result": 1900, "unit": "nM"}, {"measurement": "TGI", "setting": "MDA-MB-231 breast", "result": 3.4, "unit": "µM"}, {"measurement": "GI50", "setting": "CAKI-1 renal", "result": 2980, "unit": "nM"}, {"measurement": "TGI", "setting": "CAKI-1 renal", "result": 10.1, "unit": "µM"}, {"measurement": "GI50", "setting": "TK-10 renal", "result": 2610, "unit": "nM"}, {"measurement": "TGI", "setting": "TK-10 renal", "result": 7.37, "unit": "µM"}, {"measurement": "GI50", "setting": "MDA-MB-435", "result": 1770, "unit": "nM"}, {"measurement": "TGI", "setting": "MDA-MB-435", "result": 3.26, "unit": "µM"}, {"measurement": "GI50", "setting": "UO-31 renal", "result": 13.4, "unit": "µM"}, {"measurement": "TGI", "setting": "UO-31 renal", "result": 29.1, "unit": "µM"}, {"measurement": "GI50", "setting": "SR leukemia", "result": 2010, "unit": "nM"}, {"measurement": "TGI", "setting": "SR leukemia", "result": 4.85, "unit": "µM"}, {"measurement": "GI50", "setting": "NCI-H522 lung", "result": 1640, "unit": "nM"}, {"measurement": "TGI", "setting": "NCI-H522 lung", "result": 3.12, "unit": "µM"}, {"measurement": "GI50", "setting": "SNB-75 CNS", "result": 11, "unit": "µM"}, {"measurement": "TGI", "setting": "SNB-75 CNS", "result": 26.8, "unit": "µM"}, {"measurement": "GI50", "setting": "PC-3 prostate", "result": 2130, "unit": "nM"}, {"measurement": "TGI", "setting": "PC-3 prostate", "result": 5.11, "unit": "µM"}, {"measurement": "GI50", "setting": "NCI-H460 lung", "result": 1860, "unit": "nM"}, {"measurement": "TGI", "setting": "NCI-H460 lung", "result": 3.45, "unit": "µM"}, {"measurement": "GI50", "setting": "HL-60(TB) leukemia", "result": 2070, "unit": "nM"}, {"measurement": "TGI", "setting": "HL-60(TB) leukemia", "result": 4.25, "unit": "µM"}, {"measurement": "GI50", "setting": "SK-MEL-28 melanoma", "result": 1680, "unit": "nM"}, {"measurement": "TGI", "setting": "SK-MEL-28 melanoma", "result": 3.15, "unit": "µM"}, {"measurement": "GI50", "setting": "SF-539 CNS", "result": 1750, "unit": "nM"}, {"measurement": "TGI", "setting": "SF-539 CNS", "result": 3.18, "unit": "µM"}]}]}
